Laboratory results as given in patent publication US9265253B2, “Use of macrocyclic picolinamides as fungicides” (DOW AGROSCIENCES LLC, priority 2013, dated 2016).
Where two headings read alike, the source gives them in different places.

Legend:
[1] = tested on: Mycosphaerella graminicola; Anamorph: Septoria tritici; assay: Leaf Blotch of Wheat (SEPTTR) disease control; type: in vivo; conditions: Zymoseptoria tritici; for pest or weed control at 100 ppm: rate 100 ppm; for pest or weed control at 121.5 g/ha: rate 121.5 g/H
How it was run: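 Preventive or curative tests: first-leaf Yuma wheat, sprayed to run-off, inoculated with S. tritici, dew chamber at 100% humidity, then greenhouse at 20° C. Severity on the first leaf is scored on a 0–100% scale and expressed as % control against untreated plants.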

[2] = tested on: Puccinia triticina; Synonym: Puccinia recondite f. Sp. Tritici; assay: Wheat Brown Rust (PUCCRT) disease control; type: in vivo; conditions: Puccinia triticina, topical; for pest or weed control at 100 ppm: rate 100 ppm; for pest or weed control at 121.5 g/ha: rate 121.5 g/H
How it was run: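 Brown rust on first-leaf Yuma wheat: spore inoculation before or after spray application (acetone/Triton X-100 solution, or EC with Trycol in track spray), overnight 100% RH at 22 °C, disease developed at 24 °C. Severity scored 0–100% and converted to percent control against untreated.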

[3] = 24 h, 1 Day Protectant, read-out: SEPTTR 1 DP disease control
[4] = 72 h, 3 Day Curative, read-out: SEPTTR 3 DC disease control
[5] = 24 h, 1 Day Protectant, read-out: PUCCRT 1 DP disease control
[6] = 72 h, 3 Day Curative, read-out: PUCCRT 3 DC disease control

melting point [°C]	Structure (SMILES)	pest or weed control at 100 ppm [1, 3] [%]	pest or weed control at 100 ppm [1, 4] [%]	pest or weed control at 100 ppm [2, 5] [%]	pest or weed control at 100 ppm [2, 6] [%]	pest or weed control at 121.5 g/ha [1, 3] [%]	pest or weed control at 121.5 g/ha [1, 4] [%]	pest or weed control at 121.5 g/ha [2, 5] [%]	pest or weed control at 121.5 g/ha [2, 6] [%]
129 to 131	COc1ccnc(C(=O)N[C@H]2CCC[C@H](Cc3ccc(C)cc3)[C@@H](OCC(C)C)[C@H](C)OC2=O)c1O [Compound F41]	80 to 100	80 to 100	80 to 100	0 to 80	–	–	–	–
96 to 100	COc1ccnc(C(=O)N[C@H]2CCC[C@H](Cc3ccc(C)cc3)[C@@H](Oc3ccccc3)[C@H](C)OC2=O)c1OC(C)=O [Compound F79, 4-methoxy-2-(((3S,7R,8R,9S)-9-methyl-7-(4-methylbenzyl)-2-oxo-8-phenoxyoxonan-3-yl)carbamoyl)pyridin-3-yl acetate]	80 to 100	80 to 100	80 to 100	80 to 100	–	–	–	–
55 to 60	COc1ccnc(C(=O)N[C@H]2CCC[C@H](Cc3ccc(C)cc3)[C@@H](OCC3CC3)[C@H](C)OC2=O)c1OCOC(C)=O [Compound F127]	80 to 100	80 to 100	80 to 100	80 to 100	–	–	–	–
71 to 75	COc1ccnc(C(=O)N[C@H]2CCC[C@H](Cc3ccc(C)cc3)[C@@H](Oc3ccccc3)[C@H](C)OC2=O)c1OCOC(C)=O [Compound F134]	80 to 100	80 to 100	80 to 100	80 to 100	–	–	–	–

The remaining lines, values behind:

Structure (SMILES)	melting point [°C]	pest or weed control at 100 ppm [1, 3] [%]	pest or weed control at 100 ppm [1, 4] [%]	pest or weed control at 100 ppm [2, 5] [%]	pest or weed control at 100 ppm [2, 6] [%]	pest or weed control at 121.5 g/ha [1, 3] [%]	pest or weed control at 121.5 g/ha [1, 4] [%]	pest or weed control at 121.5 g/ha [2, 5] [%]	pest or weed control at 121.5 g/ha [2, 6] [%]
COc1ccnc(C(=O)N[C@H]2CCC[C@H](Cc3ccc(C)cc3)[C@@H](Oc3ccccc3)[C@H](C)OC2=O)c1O [Compound F49, 3-hydroxy-4-methoxy-N-((3S,7R,8R,9S)-9-methyl-7-(4-methylbenzyl)-2-oxo-8-phenoxyoxonan-3-yl)picolinamide]	62 to 66	80 to 100	80 to 100	80 to 100	0 to 80	–	–	–	–
COc1ccnc(C(=O)N[C@H]2CCC[C@H](Cc3ccc(F)cc3F)[C@@H](OCc3ccccc3)[C@H](C)OC2=O)c1O [Compound F52]	68 to 72	80 to 100	80 to 100	80 to 100	80 to 100	–	–	–	–
COc1ccnc(C(=O)N[C@H]2CCC[C@H](Cc3ccc(F)cc3F)[C@@H](OCC(C)C)[C@H](C)OC2=O)c1O [Compound F59]	69 to 72	80 to 100	80 to 100	80 to 100	80 to 100	80 to 100	0 to 80	80 to 100	–
COc1ccnc(C(=O)N[C@H]2CCC[C@H](Cc3ccc(F)cc3F)[C@@H](OC(=O)c3ccco3)[C@H](C)OC2=O)c1O [Compound F60]	93 to 97	80 to 100	80 to 100	80 to 100	80 to 100	80 to 100	–	80 to 100	–
COc1ccnc(C(=O)N[C@H]2CCC[C@H](Cc3ccc(F)cc3F)[C@@H](OCCCc3ccccc3)[C@H](C)OC2=O)c1OCOC(C)=O [Compound F141]	40 to 45	80 to 100	80 to 100	80 to 100	0 to 80	80 to 100	0 to 80	80 to 100	–
CCOCC(=O)OCOc1c(OC)ccnc1C(=O)N[C@H]1CCC[C@H](Cc2ccc(C)cc2)[C@@H](OCC2CC2)[C@H](C)OC1=O [Compound F180]	50 to 55	80 to 100	80 to 100	80 to 100	80 to 100	80 to 100	80 to 100	80 to 100	0 to 80
COCN(C(=O)OC(C)(C)C)[C@H]1CCC[C@H](Cc2ccc(F)cc2F)[C@@H](OCc2ccccc2)[C@H](C)OC1=O [Compound F254]	108 to 115	–	–	–	–	–	–	–	–
COCN(C(=O)OC(C)(C)C)[C@H]1CCC[C@H](Cc2ccc(F)cc2F)[C@@H](OC(=O)c2ccco2)[C@H](C)OC1=O [Compound F260]	45 to 48	–	–	–	–	–	–	–	–
